Measurements reported in US20160090556A1, “PRODUCTS COMPRISING MALODOR REDUCTION MATERIALS” (The Procter & Gamble Company, priority 2014, published 2016).
Like-named read-outs stand apart in the source and are kept apart here.

Experiment: Liquid dish neat product liquid-air partition coefficient
Type: physicochemical
Settings: for Comment Code: Log of liquid dish neat product liquid-air partition coefficient: code letters K, L
[1] = class code letter within Comment Code

Structure (SMILES) | Log of liquid dish neat product liquid-air partition coefficient (Comment Code K/L) | Log of liquid dish neat product liquid-air partition coefficient (Comment Code K/L) [1] | Comment Code: Log of liquid dish neat product liquid-air partition coefficient
CCC(=O)C=CC1C(C)=CCCC1(C)C (stereo not drawn) [Material 700] | K (Log of liquid dish neat product liquid-air partition coefficient greater than or equal to −7) | – | –
C=C(C)[C@@H]1CCC2=CC(=O)C[C@@H](C)[C@]2(C)C1 [Material 48] | – | K (Log of liquid dish neat product liquid-air partition coefficient greater than or equal to −7) | K (Log of liquid dish neat product liquid-air partition coefficient greater than or equal to −7)
C=CC(C)=CCC=C(C)CCC=C(C)C=O [Material 691] | K (Log of liquid dish neat product liquid-air partition coefficient greater than or equal to −7) | – | –
CC1=CCCC2(C)CCC3CC12OC3(C)C (stereo not drawn) [Material 726] | K (Log of liquid dish neat product liquid-air partition coefficient greater than or equal to −7) | – | K (Log of liquid dish neat product liquid-air partition coefficient greater than or equal to −7)
Cc1ccc(C(C)C)cc1O [Material 575] | – | – | K (Log of liquid dish neat product liquid-air partition coefficient greater than or equal to −7)
CCC=CCC=CCCO [Material 929] | K (Log of liquid dish neat product liquid-air partition coefficient greater than or equal to −7) | – | –
C=C1CCCC(C)(C)C2C=C(C)CCC12 (stereo not drawn) [Material 707] | K (Log of liquid dish neat product liquid-air partition coefficient greater than or equal to −7) | – | –
c1ccc(Oc2ccccc2)cc1 [Material 428] | – | K (Log of liquid dish neat product liquid-air partition coefficient greater than or equal to −7) | –
C=C1CC[C@@H]2[C@H]([C@H]3[C@H]1CC[C@]3(C)O)C2(C)C [Material 1035] | K (Log of liquid dish neat product liquid-air partition coefficient greater than or equal to −7) | – | K (Log of liquid dish neat product liquid-air partition coefficient greater than or equal to −7)
C[C@@H]1CCC=C2CC[C@@H](C(C)(C)O)C[C@]21C [Material 1107] | K (Log of liquid dish neat product liquid-air partition coefficient greater than or equal to −7) | – | K (Log of liquid dish neat product liquid-air partition coefficient greater than or equal to −7)
O=C1CCCCCCCCCCCCCCCO1 [Material 277] | – | K (Log of liquid dish neat product liquid-air partition coefficient greater than or equal to −7) | –
CCC(C)(O)/C=C/C=C(C)C (stereo not drawn) [Material 81] | – | – | K (Log of liquid dish neat product liquid-air partition coefficient greater than or equal to −7)
CC(C)C1OCCC2(CC3CCC2(C)C3(C)C)O1 (stereo not drawn) [Material 659] | K (Log of liquid dish neat product liquid-air partition coefficient greater than or equal to −7) | – | K (Log of liquid dish neat product liquid-air partition coefficient greater than or equal to −7)
CCOC(=O)OC1CCCCC1C(C)(C)C (stereo not drawn) [Material 355] | – | – | K (Log of liquid dish neat product liquid-air partition coefficient greater than or equal to −7)
CCCC(=O)OCCc1ccccc1 [Material 831] | K (Log of liquid dish neat product liquid-air partition coefficient greater than or equal to −7) | – | –
CC(C)CC1CC(C)(O)CCO1 (stereo not drawn) [Material 350] | – | K (Log of liquid dish neat product liquid-air partition coefficient greater than or equal to −7) | –

Structure (SMILES) | Log of liquid dish neat product liquid-air partition coefficient (Comment Code K/L) | Log of liquid dish neat product liquid-air partition coefficient (Comment Code K/L) [1] | Comment Code: Log of liquid dish neat product liquid-air partition coefficient
CC(=O)C=CC12OC1(C)CCCC2(C)C (stereo not drawn) [Material 636] | K (Log of liquid dish neat product liquid-air partition coefficient greater than or equal to −7) | – | –
CCC=C1OC(=O)c2ccccc21 [Material 805] | K (Log of liquid dish neat product liquid-air partition coefficient greater than or equal to −7) | – | –
CC(=O)OC(C)CC/C=C(\C)CCC=C(C)C (stereo not drawn) [Material 890] | K (Log of liquid dish neat product liquid-air partition coefficient greater than or equal to −7) | – | –
C=C1CCCC(C)(C)C1C=CC(C)=O (stereo not drawn) [Material 324] | – | K (Log of liquid dish neat product liquid-air partition coefficient greater than or equal to −7) | –
c1ccc(CCc2ccccc2)cc1 [Material 457] | – | K (Log of liquid dish neat product liquid-air partition coefficient greater than or equal to −7) | –
CC(=CCC1CC=C(C)C1(C)C)CO (stereo not drawn) [Material 908] | K (Log of liquid dish neat product liquid-air partition coefficient greater than or equal to −7) | – | –
CC1=CC(C)C2C(CCC(C)(C)C2O)C1 (stereo not drawn) [Material 39] | – | K (Log of liquid dish neat product liquid-air partition coefficient greater than or equal to −7) | K (Log of liquid dish neat product liquid-air partition coefficient greater than or equal to −7)
CC(O)C(C)Cc1ccccc1 (stereo not drawn) [Material 82] | – | K (Log of liquid dish neat product liquid-air partition coefficient greater than or equal to −7) | –
C=CCCC(=O)C1=CCCC(C)(C)C1 [Material 697] | K (Log of liquid dish neat product liquid-air partition coefficient greater than or equal to −7) | – | –
C=CCOC(=O)COCCC(C)C [Material 748] | K (Log of liquid dish neat product liquid-air partition coefficient greater than or equal to −7) | – | –
O=C1CCC=CCCCCCCCCCC1 [Material 371] | – | K (Log of liquid dish neat product liquid-air partition coefficient greater than or equal to −7) | –
C=C(C)C1CC=C(CO)CC1 (stereo not drawn) [Material 948] | K (Log of liquid dish neat product liquid-air partition coefficient greater than or equal to −7) | – | –
Cc1ccc2c(c1)OCC(=O)CO2 [Material 17] | – | K (Log of liquid dish neat product liquid-air partition coefficient greater than or equal to −7) | –
C=CCc1cc(OC)c2c(c1)OCO2 [Material 37] | – | K (Log of liquid dish neat product liquid-air partition coefficient greater than or equal to −7) | –
CC(=O)OC1(C)CCC(=C(C)C)CC1 (stereo not drawn) [Material 317] | – | K (Log of liquid dish neat product liquid-air partition coefficient greater than or equal to −7) | –
CC(C)C(=O)OC1CC2CCC1(C)C2(C)C (stereo not drawn) [Material 603] | K (Log of liquid dish neat product liquid-air partition coefficient greater than or equal to −7) | – | K (Log of liquid dish neat product liquid-air partition coefficient greater than or equal to −7)
